“Also recorded” adds a separate entry of the source. Read-outs that look alike come from different tables or passages of the source. Some results are limits rather than exact numbers.

The subject of data set [1] is non-iron-overloaded bile duct-cannulated rats. As to conditions: rats po 150 µmol/kg, cited from earlier work; for relative percentages of the iron excreted in the bile and urine [bile/urine]: Cremophor RH-40/water.
In data set [2] the test system is iron overloaded primates. As to conditions: cited from earlier work.
Data set [3] relates to rats. As to conditions: cited from earlier work.
The conditions of data set [4]: cited from earlier work.
Data set [5] has as its system patients. As to conditions: clinical trial, twice daily dosing; cited from earlier work.
The test system of data set [6] is iron overloaded primates. As to conditions: primates po 75 µmol/kg, monosodium salt.
In data set [7] the test system is rats with normal iron stores. The settings on record: for BUN / SCr: rats po 237 µmol/kg b.i.d. × 7 d (6: euthanized day 8).
A short description of data set [8]: Ligand-plasma binding, rodent plasma. As to conditions: 37 °C, 4 h, 3,000 MWCO filter. It is filed as in vitro ADME.
A short description of data set [9]: Ligand-plasma binding, primate plasma. The settings on record: 37 °C, 4 h, 3,000 MWCO filter. It is filed as in vitro ADME.

`C[C@]1(C(=O)[O-])CSC(c2ncccc2O)=N1.[Na+]` [Compound 1, (S)-4,5-dihydro-2-(3-hydroxy-2-pyridinyl)-4-methyl-4-thiazolecarboxylic acid]: in data set [1], the “relative percentages of the iron excreted in the bile and urine [bile/urine]” value is 93/7; the “time at which deferration had returned to baseline” value is reported as not above 12 h. Besides, the “relative percentages of the iron excreted in the feces and urine [feces/urine]” value (shortened to “relative percentages … [feces/urine]”) in data set [2] (primates po 150 µmol/kg) was 78/22. For the same compound, in data set [3] (rats po once daily 384 µmol/kg/d), the nephrotoxicity entry is reported as “severely nephrotoxic”.
`C[C@]1(C(=O)[O-])CSC(c2ccccc2O)=N1.[Na+]` [Compound 2, (S)-4,5-dihydro-2-(2-hydroxyphenyl)-4-methyl-4-thiazolecarboxylic acid]: in data set [1], the “relative percentages of the iron excreted in the bile and urine [bile/urine]” value is 100/0; the “time at which deferration had returned to baseline” value is not above 12 h. For the same compound, the “relative percentages … [feces/urine]” value in [2] (primates po 75 µmol/kg) is reported as 76/24. Moreover, in data set [4], the gastrointestinal toxicity entry is on record as “serious gastrointestinal (GI) problems” and the nephrotoxicity result is “not overtly nephrotoxic”.
For the compound `C[C@]1(C(=O)[O-])CSC(c2ccc(O)cc2O)=N1.[Na+]` [Compound 3, (S)-2-(2,4-dihydroxyphenyl)-4,5-dihydro-4-methyl-4-thiazolecarboxylic acid], in [5], the “renal findings in patients” value is “increases in blood urea nitrogen (BUN) and serum creatinine (SCr) levels; also recorded: induced proximal tubule nephrotoxicity”.
Consider `COCCOCCOCCOc1ccc(C2=N[C@@](C)(C(=O)O)CS2)c(O)c1` [Compound 4, (S)-4,5-dihydro-2-[2-hydroxy-4-(3,6,9-trioxadecyloxy)]-4-methyl-4-thiazolecarboxylic acid], for which the nephrotoxicity entry in data set [3] (rats po once or twice daily) is given as “virtually nephrotoxicity-free”.
Turning to `C[C@]1(C(=O)[O-])CSC(c2ncc(O)cc2O)=N1.[Na+]` [Compound 6, (S)-4,5-dihydro-2-(3,5-dihydroxy-2-pyridinyl)-4-methyl-4-thiazolecarboxylic acid], the “relative percentages … [feces/urine]” value in data set [6] is on record as 58/42. Also, in [7] (rats po 237 µmol/kg b.i.d., until day 5), the “urinary Kim-1” value was less than 50 ng/kg/24h.
With `COCCOCCOc1cnc(C2=N[C@@](C)(C(=O)[O-])CS2)c(O)c1.[Na+]` [Compound 8, (S)-4,5-dihydro-2-[3-hydroxy-5-(3,6-dioxaheptyloxy)-2-pyridinyl]-4-methyl-4-thiazolecarboxylic acid], in data set [7], the BUN entry is “well within the normal range” and the SCr entry is on record as “well within the normal range”.
Consider `COCCOCCOc1ccnc(C2=N[C@@](C)(C(=O)[O-])CS2)c1O.[Na+]` [Compound 10, (S)-4,5-dihydro-2-[3-hydroxy-4-(3,6-dioxaheptyloxy)-2-pyridinyl]-4-methyl-4-thiazolecarboxylic acid], for which the “binding of the ligand to plasma” value in data set [8] was “little, if any, binding”. Besides, the “binding of the ligand to plasma” value in data set [9] is “little, if any, binding”. Besides, in data set [7], the BUN entry is given as “well within the normal range” and the SCr result was “well within the normal range”.
